Measurements taken from patent publication US20210113501A1, “METHOD OF ADMINISTERING BETA-HYDROXY-BETA-METHYLBUTYRATE (HMB)” (Metabolic Technologies, Inc., priority 2009, published 2021).

Tests used:
C2C12 myotubes = settings: cited from earlier work
[1] = after HMB is fed; cited from earlier work
[2] = Study 2: plasma HMB and urinary HMB excretion over 24 h; assay type: in vivo, human
From the text: Human subjects. In study 1, four male and four female college-aged subjects were studied. In study 2, an additional four male and four female college-aged subjects were studied. The protocols for both studies were approved by the Iowa State University IRB and each subject gave informed consent to participate in the study. Due to the nature of the treatments, neither the subjects nor the researchers could be blinded.
Treatments. The same treatments were given to the subjects in both study groups. The three treatments were given in random order to each subject with at least a one week washout period between treatments. The treatments were supplied by Metabolic Technologies, Inc. (MTI, Ames, Iowa) and were prepared with food grade ingredients. One gram of CaHMB or the equivalent HMB in free acid in a gel form was administered to the subjects. The CaHMB capsules were obtained from a commercial supplement manufacturer (Optimum Nutrition, Aurora, Ill.) while the HMB-acid gel was prepared at MTI laboratories. Briefly, the HMB-acid was adjusted to a pH 4.5 with potassium carbonate (K2CO3) and flavors and sweeteners were then added. The 1.0 g CaHMB capsule was taken with 355 mL of water (approx. 12 oz.). The free acid gel dosage was 0.80 g and was equivalent to the free acid contained in the CaHMB in the capsule. The free acid gel treatments were either swallowed (FASW) or held sublingual for 15 seconds and then swallowed (FASL). FASW consisted of expelling the entire dose into the mouth in a 3 ml syringe, swallowing, and then following this with 355 mL of water. FASL subjects were instructed to place the entire dosage under the tongue and hold the dosage for 15 sec before swallowing. They then rinsed and followed the dose with 355 mL of water.
Study 2 design. Study 2 was conducted similar to study 1 with the following modifications. In study 2, plasma levels of HMB were measured for 1440 min (24 h) and total urine collection was also performed for measurement of urinary HMB excretion during this period. After the 180 min blood sample, the subjects were allowed to leave the laboratory and were instructed to return to the laboratory for additional blood samples at 360, 720, and 1440 min after the ingestion of the supplement. As in study 1, each subject took each of the treatments with at least a one week washout period between treatments. Samples were again stored frozen at −70° C. for analysis of plasma and urinary HMB concentrations. Pre-ingestion, 180 min and 1440 min blood samples were again assayed for the same measurements already for study 1. Subjects were provided with a standardized lunch after the 180 min blood sampling and instructed to eat this at approximately 240 min post ingestion. Following the 720 min blood sample, subjects were instructed to eat a normal evening meal before 10 pm. Subjects reported back to the laboratory the following morning for the fasted 1440 min blood sample. A urine collection container was provided and subjects collected all urine produced during the experimental 24 h experimental period. The urine was stored refrigerated when not being collected. Urine volumes were measured and samples of the total urine collection were taken and stored frozen at −70° C. until analyzed for HMB.
HMB analysis. Plasma and urine HMB were analyzed by gas chromatography/mass spectrometry (GC/MS) as previously described.(27)
Calculations and statistics. Areas under the curves were calculated for each subject using the trapezoidal method that sums the area above baseline.(51) Half-life of plasma HMB was calculated for study 2. The following equations were used:
k=(ln(Cpeak)−ln(Ctrough))/Tinterval
Peak plasma concentrations for each subject were used for Cpeak. […] Tpeak was the time at which Cpeak was measured and Tinterval is the time from Tpeak until the time at Ctrough (720 min). The extracellular fluid compartment was assumed to be 20% of body weight and calculated using equation 3 below(1). […]

[3] = test system: protein degradation in muscle; experiment: Urinary 3-methylhistidine to creatinine ratio after an acute exercise bout; assay type: in vivo, human
Experimental: (§1) Subjects: We conducted a study at the Iowa State University Health and Human Performance Laboratory; this study was approved by the Iowa State University Institutional Review Board, and was registered at ClinicalTrials.gov (NCT01150526). We recruited 12 men and 13 women between the ages of 20 and 36 from the Iowa State University community and surrounding area.
(§2) Treatments: The experimental design is depicted in FIG. 8.
Five treatments were administered as follows: Treatment 1: Placebo. This group received a placebo capsule and a placebo syringe dosage at each dosage administration. Treatment 2: CaHMB pre-exercise. This group received a CaHMB capsule and a placebo syringe dosage 30 min prior to the acute exercise bout. The remaining additional dosages during the study consisted of one placebo capsule and one placebo syringe dosage. Treatment 3: HMB-acid gel pre-exercise. This group received a placebo capsule and a syringe dosage of HMB-acid gel 30 min prior to the acute exercise bout. The remaining additional dosages during the study consisted of one placebo capsule and one placebo syringe dosage. Treatment 4: CaHMB pre- and post-exercise. This group received a CaHMB capsule and a placebo syringe dosage at all administration times during the study. Treatment 5: HMB-acid gel pre- and post-exercise. This group received a syringe dosage of HMB-acid gel and one placebo capsule at all administration times during the study.
To blind the treatments to both the researchers and subjects, each subject took a capsule and syringe dosage of supplement at each administration. The capsules contained either one gram of calcium lactate (Placebo) or one gram of calcium β-hydroxy-β-methylbutryate (CaHMB). The syringe dosages were formulated to be similar in taste and appearance and contained either 0.8 g of corn syrup (Placebo) or 0.8 g of β-hydroxy-β-methylbutryate free acid, the same amount of HMB as in the capsule dosage. The 3 daily doses provided the same total HMB dosage (2.4 g as calcium HMB in the capsules or 2.4 g as HMB free acid in the syringes).
Eccentric Exercise Bout: Subjects refrained from vigorous exercise for three days before reporting to the laboratory. All subjects were studied after an overnight fast. […] Subjects then consumed their assigned supplement and 30 minutes later the eccentric exercise session was performed. The exercise consisted of 50 maximal effort contractions of knee extensors while attempting to resist the Biodex lever arm as it moves the knee joint from full extension to 90 degrees flexion; this is similar to letting a heavy weight down slowly while in a seated position. Each contraction lasted about 2 seconds and 12 seconds were allowed between contractions. This protocol was performed on the right leg followed by the left leg. The subjects received 2 more daily dosages of treatment (placebo or HMB) with instructions to take the dosages at lunch and dinner. For the next 4 days the subjects returned to the laboratory fasted each morning, had blood taken and urine collected and then consumed the morning dosage of their supplement. The subjects were again given the 2 remaining daily supplement dosages with instructions to take them at lunch and dinner.
(§3) Serum and Urine Samples: A fasting blood sample was taken from a superficial forearm vein each morning when the subjects reported to the laboratory for testing. Additionally a clean catch urine sample was collected at this time. Serum CPK was analyzed by a commercial laboratory (Quest Diagnostics, Madison N.J.). Urine 3-Methylhistidine (3MH) was analyzed by a previously published GC/MS method (9). Urinary creatinine was analyzed by colorimetric assay (Cayman Chemical Company, Ann Arbor, Mich.). The urinary 3MH data was normalized to urinary creatinine and expressed as 3MH:creatinine ratio, μmol:mg.
(§4) Statistics: Data were analyzed using the mixed model procedure in Statistical Analysis System for Windows (Release 9.1.3, SAS Institute, Cary, N.C.). […]

muscle damage = experiment: Serum CPK after an acute eccentric exercise bout; assay type: in vivo, human; settings: pre- and post exercise dosing (Treatment 5)
Experimental: as §1, §2
Five treatments were administered as follows: Treatment 1: Placebo. This group received a placebo capsule and a placebo syringe dosage at each dosage administration. Treatment 2: CaHMB pre-exercise. […]
as §3, with “Additionally a clean catch urine sample was collected at this time.” left out
as §4

Structure (SMILES): CC(C)(O)CC(=O)O [HMB, β-Hydroxy-β-methylbutyrate]
- phosphorylation of 4EBP1Thr65/70 (C2C12 myotubes): +51%
- phosphorylation of AKTSer473 (C2C12 myotubes): +129%
- phosphorylation of S6K1Thr389 (C2C12 myotubes): +50%
- AKT phosphorylation (C2C12 myotubes; incubation with rapamycin): +188%
- loss of HMB to urine [1]: 20-50%

Structure (SMILES): CC(C)C[C@H](N)C(=O)O [leucine]
- phosphorylation of S6K1Thr389 (C2C12 myotubes): +17%

Structure (SMILES): CC(C)(O)CC(=O)O [HMB-acid gel, β-hydroxy-β-methylbutryate free acid]
- increase in HMB plasma clearance compared with CaHMB ([2]; Study 2): 25%
- AUC greater than for CaHMB capsules ([2]; Study 2, over 24 hours, listed as free acid gel): +14.8%
- estimated amount of HMB retained greater than CaHMB ([2]; based upon plasma clearance): 25%
- peak plasma level earlier than with CaHMB ([2]; free acid versus CaHMB): ~90 min
- plasma level relative to oral CaHMB ([2]; peak levels): ~2 fold
- 3MH:Cr ([3]; Baseline, dosed pre- and post exercise (Treatments 4, 5)): 0.225 ± 0.034 µmol/mg
- 3MH:Cr ([3]; Baseline, dosed pre-exercise only (Treatments 2, 3)): 0.173 ± 0.028 µmol/mg
- 3MH:Cr ([3]; at 24 h, dosed pre- and post exercise (Treatments 4, 5)): 0.213 ± 0.025 µmol/mg
- 3MH:Cr ([3]; at 24 h, dosed pre-exercise only (Treatments 2, 3)): 0.213 ± 0.037 µmol/mg
- 3MH:Cr ([3]; at 48 h, dosed pre- and post exercise (Treatments 4, 5)): 0.208 ± 0.012 µmol/mg
- 3MH:Cr ([3]; at 48 h, dosed pre-exercise only (Treatments 2, 3)): 0.190 ± 0.014 µmol/mg
- 3MH:Cr ([3]; at 72 h, dosed pre- and post exercise (Treatments 4, 5)): 0.175 ± 0.013 µmol/mg
- 3MH:Cr ([3]; at 72 h, dosed pre-exercise only (Treatments 2, 3)): 0.172 ± 0.013 µmol/mg
- 3MH:Cr ([3]; at 96 h, dosed pre- and post exercise (Treatments 4, 5)): 0.186 ± 0.043 µmol/mg
- 3MH:Cr ([3]; at 96 h, dosed pre-exercise only (Treatments 2, 3)): 0.202 ± 0.020 µmol/mg
- protein degradation (3MH:Cr ratio), trend ([3]; pre- and post exercise dosing): no increase and even a decrease in protein degradation
- blunting of the exercise-induced increase in serum CPK (muscle damage; 24 h post exercise, P<0.03): up to 64%
- blunting of the exercise-induced increase in serum CPK (muscle damage; 48 h post exercise, P<0.005): 86%
